This is an account of results in PubChem BioAssay AID1996.

Structures are written as SMILES. Values after ≈ are worked out from the molar mass of the structure shown.

The conditions of this data set: buffer; pH 7.4; 200.0 µM.
The compound `CC(C)CCNC(=O)c1ccc2c(c1)ncn2C1CCCC1` showed a kinetic solubility of over 0.0449 mg/mL.
The result for `OCC1(Cc2ccccc2)CCCN(Cc2c[nH]c3ccccc23)C1` (centres undefined) reads 0.036 mg/mL (≈ 108 µM); that for `O=C(Nc1cc(S(=O)(=O)N2CCOCC2)ccc1N1CCCCC1)c1ccccc1Br`, 0.0061 mg/mL (≈ 12 µM).
The result for `COc1ccc(C(=O)C2CCN(C(=O)c3ccc(F)cc3)CC2)cc1` reads 0.0506 mg/mL (≈ 148 µM); that for `CCOc1ncccc1C(=O)NC(C)CCc1ccccc1` (centres undefined), 0.041 mg/mL (≈ 137 µM).
The result for `Cn1ncc([N+](=O)[O-])c1C(=O)Nc1ccccc1Cl` reads over 0.0421 mg/mL; that for `COc1ccc(CCN(C)Cc2cccc3ccccc23)cc1OC`, 0.0371 mg/mL (≈ 111 µM).
`Clc1cccc(Cl)c1CN1CCN(c2ncccn2)CC1` gave a solubility (kinetic) of 0.0172 mg/mL (≈ 53.2 µM).
The result for `Cc1ccc([N+](=O)[O-])c(OCC(O)CNC(C)(C)C)c1.Cl` (centres undefined) reads over 0.0478 mg/mL; that for `O=C(NC(=S)NC1CCSC1=O)c1ccc([N+](=O)[O-])cc1` (centres undefined), 0.0406 mg/mL (≈ 125 µM).
Regarding `CC1=NN(c2nc3ccccc3[nH]2)C(=O)/C1=C/N(C)C`, the solubility (kinetic) was over 0.0404 mg/mL.
The result for `Fc1cccc(NC(=S)N2CCn3cccc3C2c2cccnc2)c1` (centres undefined) reads 0.0519 mg/mL (≈ 147 µM); that for `CCC(=O)c1c(NC)cc(C)oc1=O`, over 0.0293 mg/mL.
The result for `Cn1c(SCC(=O)Nc2cccnc2Cl)nnc1-c1ccco1` reads over 0.0525 mg/mL; that for `Cc1cc(NC(=O)CSc2ccnc(=O)[nH]2)no1`, over 0.0399 mg/mL.
With `CCOc1ccc(S(=O)(=O)N2CCN(C(=O)c3cc4ccccc4o3)CC2)cc1`, the solubility (kinetic) came to 0.006 mg/mL (≈ 14.5 µM).
Compound `C=CCn1c(CCNC(=O)c2ccco2)nc2ccccc21` yielded a kinetic solubility of over 0.0443 mg/mL.
`Oc1ccc(C(=S)N2CCCC2)cc1`: the kinetic solubility is over 0.0311 mg/mL.
The result for `CC(=O)N1CCN(C(=O)CNC(=O)c2ccc(Br)o2)CC1` reads over 0.0537 mg/mL.
The figure for `CC1CN(C(=O)COC(=O)c2cc(Cl)ccc2Cl)CC(C)O1` (centres undefined) is over 0.0519 mg/mL; for `O=C(CN1CCCCC1)N1CCN(c2ccccc2)CC1` it is over 0.0431 mg/mL.
Compound `COc1ccccc1Cn1c(=S)[nH]c2ccc(F)cc2c1=O` came in with a kinetic solubility of 0.0016 mg/mL (≈ 5.06 µM).
In turn, `C#CCOC(=O)Nc1ccc(OCC(F)(F)F)nc1` came in with a kinetic solubility of 0.0192 mg/mL (≈ 70 µM).
The figure for `CCOc1cc(C(=O)NC2CC(C)(C)NC(C)(C)C2)cc(OCC)c1OCC` is over 0.0589 mg/mL; for `Cc1c(Cl)cccc1NC(=O)NCc1ccccn1` it is 0.0385 mg/mL (≈ 140 µM); for `COc1cccc(OC)c1C(=O)Nc1cccc2c1CCCC2` it is 0.0411 mg/mL (≈ 132 µM).
The result for `CC(=O)Nc1ccc(NC(=O)Nc2cc(C)cc(C)c2)cc1` reads 0.0008 mg/mL (≈ 2.69 µM).
As to `S=C1NCN(Cc2ccco2)CN1CCc1ccccc1`, the kinetic solubility was 0.0096 mg/mL (≈ 31.8 µM).
With `COc1ccc(CNC(=O)/C=C/C(=O)O)cc1`, the solubility (kinetic) was found to be 0.035 mg/mL (≈ 149 µM). This solubility kinetic lies about 3.6-fold higher than the previous one.
The figure for `O=C(NCc1cccnc1)C(=O)Nc1ccc([N+](=O)[O-])cc1` is 0.0037 mg/mL (≈ 12.3 µM).
For `Cc1cc(Nc2ccccc2Cl)c2ccccc2n1`, the solubility (kinetic) was over 0.0403 mg/mL.
The figure for `COc1cccc(OCc2ccc(Cl)cc2)c1C#N` is under 0.0006 mg/mL.
The result for `Fc1cc(F)c(NC(=S)N2CCOCC2)c(F)c1` reads over 0.0414 mg/mL.
`CCn1ccnc1CN(C)Cc1nc(-c2cccc(Cl)c2)no1` yielded a solubility (kinetic) of 0.0378 mg/mL (≈ 114 µM).
The figure for `NC(=O)C1CCN(C(=O)CCn2c(=O)oc3ccccc32)CC1` is over 0.0476 mg/mL.
The compound `CN(C(=O)COC(=O)c1ccc(Cl)nc1)C1CCS(=O)(=O)C1` (centres undefined) showed a solubility (kinetic) of over 0.052 mg/mL.
Compound `CC(C)=NN1C(c2nonc2N)=NOC1(C)C` showed a solubility (kinetic) of over 0.0357 mg/mL.
The figure for `CCN(C(=S)NCCOC)c1cccc2ccccc12` is 0.0129 mg/mL (≈ 44.7 µM); for `Cc1cc2oc(=O)cc(CN3CCC(C)CC3)c2cc1C` it is 0.0041 mg/mL (≈ 14.4 µM).
The figure for `Cc1c(NS(=O)(=O)c2ccc(N)cc2)c(=O)n(-c2ccccc2)n1C` is over 0.0538 mg/mL; for `CC(=O)c1ccc(NC(=O)c2noc(C)c2[N+](=O)[O-])cc1` it is 0.0186 mg/mL (≈ 64.3 µM).
The figure for `Cc1cccc(NS(=O)(=O)c2ccc3c(c2)oc(=O)n3C)c1C` is 0.0015 mg/mL (≈ 4.51 µM); for `O=c1[nH]c(-[n+]2ccccc2)c(/C=N/N=C(\[O-])c2ccccc2)s1` it is over 0.0487 mg/mL.
In the case of `COC(=O)c1ccc(COC(=O)CNC(=O)CNC(=O)c2ccc(OC)cc2)cc1`, the kinetic solubility was 0.0161 mg/mL (≈ 38.9 µM).
The result for `COc1cccc(CNC(=O)COC(=O)c2c(NC(C)=O)sc(C)c2C)c1` reads 0.0019 mg/mL (≈ 4.87 µM); that for `CC(C)(C)c1ccc(S(=O)(=O)Nc2noc3ccccc23)cc1`, over 0.0496 mg/mL; that for `Cc1c(Cl)cccc1NS(=O)(=O)c1cccc2nsnc12`, over 0.051 mg/mL.
For the compound `COc1ccc(C(=O)NC23CC4CC(CC(C4)C2)C3)cc1OC`, the kinetic solubility is 0.0029 mg/mL (≈ 9.19 µM).
The result for `CCOc1ccc(NC(=O)c2cccc(NC(=O)c3ccccc3)c2)cc1` reads 0.0008 mg/mL (≈ 2.22 µM); that for `O=C1Nc2ccc(S(=O)(=O)N(CCO)CCO)c3cccc1c23`, over 0.0505 mg/mL.
The result for `O=C(O)CN1C(=O)NC2(CCOc3ccccc32)C1=O` (centres undefined) reads over 0.0414 mg/mL.
`CCC(C)(C)NC(=O)C(OC(=O)c1ccco1)c1ccccc1F` (centres undefined) gave a solubility (kinetic) of 0.0221 mg/mL (≈ 66.3 µM).
`CNc1nc(C23CC4CC(CC(C4)C2)C3)cs1` had a kinetic solubility of 0.013 mg/mL (≈ 52.3 µM).
The result for `Cc1ccc2c(C(=O)CN3CC(C)CC(C)C3)c(C)[nH]c2c1` (centres undefined) reads 0.0386 mg/mL (≈ 129 µM); that for `COc1ccccc1NC(=S)NCc1ccc(Cl)cc1`, 0.033 mg/mL (≈ 108 µM); that for `CN(CC(=O)N1CCc2ccccc2C1)c1ccccc1`, over 0.0421 mg/mL.
Compound `Br.COc1ccc(C(=O)CN2CCCCC2)cc1` came in with a kinetic solubility of over 0.0471 mg/mL.
In turn, `CCc1ccc(Nc2c([N+](=O)[O-])c(=O)oc3ccccc23)cc1` came in with a kinetic solubility of 0.0014 mg/mL (≈ 4.51 µM).
The result for `CCOc1ccccc1/C=C(\C#N)C1=CCCC1` reads over 0.0359 mg/mL.
In turn, `COc1cccc(NC(=O)CN(C)C(=O)CC(C)c2ccccc2)c1` (centres undefined) registered a kinetic solubility of 0.04 mg/mL (≈ 118 µM).
The figure for `N#Cc1ccc(C(=O)OCC(=O)NC2CCCC2)cc1` is 0.039 mg/mL (≈ 143 µM).
In turn, `O=C(Nc1ccc(F)cc1)c1cc2c(s1)CCCC2` had a kinetic solubility of under 0.0006 mg/mL.
The result for `Cc1cc(NC(=O)CN2C(=O)c3ccccc3S2(=O)=O)no1` reads 0.0327 mg/mL (≈ 102 µM); that for `Nc1ccc(S(=O)(=O)NCc2ccccn2)cc1`, over 0.0395 mg/mL.
The result for `COC(=O)c1c(C)oc(C)c1S(=O)(=O)NCc1ccc(OC)cc1` reads over 0.053 mg/mL; that for `N#Cc1ccc(C(=O)NC2=NCCS2)cc1`, 0.0218 mg/mL (≈ 94.3 µM); that for `COc1ccc2cc(S(=O)(=O)Nc3ccccn3)ccc2c1`, 0.01 mg/mL (≈ 31.8 µM).
Turning to `C[C@H](NC(=O)c1ccco1)C(=O)OCC(=O)N1CC(=O)Nc2ccccc21`, the solubility (kinetic) is over 0.0557 mg/mL.
The result for `COCCCNC(=S)N1CCN(C)CC1` reads over 0.0347 mg/mL; that for `COc1ccc(C(O)Cn2cc([N+](=O)[O-])nc2C)cc1` (centres undefined), 0.039 mg/mL (≈ 141 µM); that for `O=S(=O)(NCC1CCCO1)c1ccccc1F` (centres undefined), over 0.0389 mg/mL.
`CC(C)C(NC(=O)c1ccc(Cl)c([N+](=O)[O-])c1)C(=O)NCc1ccccn1` (centres undefined) had a kinetic solubility of 0.0406 mg/mL (≈ 104 µM).
The result for `O=C(COC(=O)/C=C/c1ccccc1[N+](=O)[O-])Nc1ccc2[nH]c(=O)[nH]c2c1` reads 0.01 mg/mL (≈ 26.2 µM).
As for `CN(C)CC/C=C1\c2cc(Cl)ccc2Sc2cc(F)c(F)cc21.Cl`, the solubility (kinetic) was determined as 0.0218 mg/mL.

As usually defined, the solubility (kinetic) is solubility judged after dilution from a stock solution rather than from solid.
